{"source": "patent US20240294570A1", "about": "“ENZYMATICALLY FORMING INTRANUCLEAR PEPTIDE ASSEMBLIES FOR SELECTIVELY KILLING INDUCED PLURIPOTENT STEM CELLS” (BRANDEIS UNIVERSITY, priority 2021, published 2024)", "key": {"[1]": {"system": "HS-5 cells", "experiment": "Cytotoxicity against HS-5 cells (MTT assay)", "format": "cell-based, human", "details": "400 μM, 2 h", "description": "(§1) Cell Culture: Human induced pluripotent stem cell line A21 was generated from human normal dermal fibroblasts by using the StemRNA™-NM Reprogramming kit (Stemgent, Cat #00-0076). hiPSCs were routinely cultured and passaged on 6-well plates coated with 0.25 μg/cm^2 iMatrix-511 (Recombinant Laminin-511) (ReproCell) with NutriStem XF/FFTM medium (Biological Industries). HS-5 cell line and HEK293 cell line were purchased from American Type Culture Collection (ATCC, USA). HS-5 cells were cultured in Dulbecco's Modified Eagle Medium (DMEM) supplemented with 10% fetal bovine serum (FBS), 100 U/mL penicillin and 100 μg/mL streptomycin. HEK293 cells were cultured in Minimal Essential Medium (MEM) supplemented with 10% fetal bovine serum (FBS), 100 U/mL penicillin and 100 μg/mL streptomycin. All cells were maintained at 37° C. in a humidified atmosphere of 5% CO2.\nCell Viability of Differentiated Cells: Cytotoxicity against HS-5 cells and HEK293 cells was determined by using MTT assay. […] The absorbance of each well at 595 nm was measured by a DTX880 Multimode Detector. The results were calculated as cell viability percentage relative to untreated cells. […]"}, "[2]": {"experiment": "Cell viability of iPSCs (trypan blue)", "format": "cell-based, human", "details": "human, human induced pluripotent stem cells (iPSC line A21), 2 hours", "description": "as §1\n(§2) Cell Viability of iPSC's: iPSCs were plated in 6-well plates and incubated for 24 to 48 hours, then media were replaced with fresh one (2 ml) supplemented with PBS (control) 5 (200 μM, 300 μM, and 400 μM), 7 (400 μM) or 9 (400 μM), and incubated for 2 hours. Media were removed and cells were rinsed with PBS once, fresh normal cultural media were added and incubated for 30 min. All cells were collected and stained with trypan blue, live cells were counted using Cellometer Auto 2000 (Nexcelom Bioscience). Data were obtained by from three independent wells (n=3)."}, "[3]": {"system": "iPSCs", "experiment": "Cell viability of iPSCs (trypan blue)", "format": "cell-based, human", "details": "400 μM, 2 h", "description": "as §1, §2"}, "[4]": {"system": "ALP", "experiment": "Dephosphorylation rate measurement (LC-MS)", "description": "The reaction mixtures were analyzed with LC-MS.\nThus, the conversion of the phosphopentapeptides to their corresponding peptides was examined over time."}, "[5]": {"experiment": "Enzymatic self-assembly in vitro, nanostructures by TEM", "format": "physicochemical", "description": "TEM Sample Preparation: After placing 5 μL samples on 400 mesh copper grids coated with continuous thick carbon film (˜35 nm) which is glowed discharged, we washed the grid with ddH2O and UA (uranyl acetate). The sample loaded grid was stained with the UA. The residual UA was removed by filter paper and then dried in air. TEM images were obtained with Morgagni 268 transmission electron microscope.\nAfter obtaining all the precursors, their behaviors for EISA were evaluated in vitro using transmission electron microscopes (TEM) to examine the nanostructures formed before and after the ALP catalyzed dephosphorylation of precursors 5, 7, and 9. […] The critical micelle concentration (CMC) of 5 is 86.1 μM. […] The CMC of 6 is 8.1 μM. Unlike the case of 5, dephosphorylation of 7 or 9 at 400 μM by ALP (0.5 U/mL) produces nanofibers with the diameters of 6±2 nm or 9±2 nm, whose CMC is 87.4 μM or 25.8 μM, respectively.\nA key requirement for selectively eliminating iPSCs by EISA is that the L-peptide nanoribbons only form on and in iPSCs, which overexpress ALP, but not on and in the differentiated cells that express normal level of ALP. That is, L-peptide nanoribbons should only rapidly form at high level of ALP, but not at normal level of ALP. […] Thus, after assessing the level of ALP expression in iPSCs, it should be possible to optimizing the initial concentration of a peptide and the time of dephosphorylation, to promote EISA that selectively targets iPSCs."}}, "note": "Non-standard residues stand in square brackets, D forms with d. Residues, ends and D or L forms follow the SMILES beside them. *: point of attachment. pY = N[C@@H](Cc1ccc(OP(=O)(O)O)cc1)C(=O)O; NBD = O=[N+]([O-])c1ccc(*)c2nonc12; βAla = NCCC(=O)O", "data": [{"smiles": "CC(C)C[C@H](NC(=O)CCNc1ccc([N+](=O)[O-])c2nonc12)C(=O)N[C@@H](CC(C)C)C(=O)N[C@@H](CC(C)C)C(=O)N[C@@H](CC(C)C)C(=O)N[C@@H](Cc1ccc(OP(=O)(O)O)cc1)C(=O)O", "note": "[compound 5, NBD-βA-LLLLpY] ({NBD-βAla}-LLLL[pY]-OH)", "values": [{"measurement": "cytotoxicity towards HS-5 cells", "setting": "[1]", "value": "slight cytotoxicity"}, {"measurement": "viability at 2 h, 200 µM", "setting": "[2]; 200 μM", "value": "31.1 ± 3.2", "unit": "%"}, {"measurement": "viability at 2 h, 300 µM", "setting": "[2]; 300 μM", "value": "18.5 ± 1.5", "unit": "%"}, {"measurement": "viability at 2 h, 400 µM", "setting": "[2]; 400 μM", "value": "6.96 ± 1.71", "unit": "%"}, {"measurement": "cell death of iPSCs (FIG. 8A)", "setting": "[3]", "value": 93, "unit": "%"}, {"measurement": "fraction hydrolyzed by ALP", "setting": "[4]; 100 μM, 0.1 U/mL ALP, time point 40 minutes", "value": "about 24%"}, {"measurement": "final dephosphorylation ratio", "setting": "[4]; 400 μM, 0.1 U/mL ALP", "value": 69.1, "unit": "%"}, {"measurement": "dephosphorylation ratio", "setting": "[4]; 400 μM, 0.5 U/mL ALP, after 5 hours of incubation", "value": 93.8, "unit": "%"}, {"measurement": "fraction turned into 6", "setting": "[4]; 0.1 U/mL ALP, after 1 hour of incubation", "value": 32.7, "unit": "%"}, {"measurement": "fraction turned into 6", "setting": "[4]; 0.1 U/mL ALP, after 2 hours of incubation", "value": 49.6, "unit": "%"}, {"measurement": "half-life at 100 μM", "setting": "[4]; alkaline phosphatase (ALP) in PBS, half-life of dephosphorylation, 100 μM, 0.5 U/mL ALP", "value": 27.3, "unit": "min"}, {"measurement": "half-life at 200 μM", "setting": "[4]; alkaline phosphatase (ALP) in PBS, half-life of dephosphorylation, 200 μM, 0.5 U/mL ALP", "value": 21.6, "unit": "min"}, {"measurement": "half-life at 400 μM", "setting": "[4]; alkaline phosphatase (ALP) in PBS, half-life of dephosphorylation, 400 μM, 0.1 U/mL ALP", "value": 122, "unit": "min"}, {"measurement": "half-life at 400 μM", "setting": "[4]; alkaline phosphatase (ALP) in PBS, half-life of dephosphorylation, 400 μM, 0.5 U/mL ALP", "value": 30.6, "unit": "min"}, {"measurement": "diameters of nanoparticles", "setting": "[5]; 200 μM, one-hour treatment by 0.1 U/mL ALP", "value": "404±50", "unit": "nm"}, {"measurement": "widths of nanoribbons", "setting": "[5]; 400 μM, ALP 0.5 U/mL, 37° C., 24 h", "value": "74±13", "unit": "nm"}, {"measurement": "diameter of short nanofibers", "setting": "[5]; 400 μM, PBS, before ALP", "value": "9±2", "unit": "nm"}]}]}
